Tests used:
Format in all cases: biochemical
MMP-3 = target: T1, MMP-3 (Homo sapiens, UniProt P08254); test: Test 1 Test on MMP-3 inhibiting activity (fluorogenic peptide substrate); conditions: activated MMP-3, 37° C.; read-out: MMP-3 inhibition activity value
T1 construct: C-terminal truncated cDNA in which the cDNA encodes human prostromelysin; made in house; host or cells: E. coli
Method: Test 1 Test on MMP-3 Inhibiting Activity
C-terminal truncated cDNA in which the cDNA encodes human prostromelysin, was subcloned (proMMP-3, cDNA sequence in Nature, 348, 699-704 (1990)), was expressed in E. coli and then, the expressed protein was purified in accordance with the method described in Biochemistry 30, 6476-6483 (1991). proMMP-3 activation was carried out by treating with 1 mM 4-aminophenyl mercuric acetate for 60 minutes at 37° C.
Enzyme activity test was conducted by the method of C. G. Knight (FEBS Lett., 296(3), 263-266 (1992)).
A mixture of activated MMP-3 (20 nM, 10 μl), buffer solution (70 μl, pH 7.5 solution containing 100 mM Tris-HCl solution, 10 mM calcium chloride solution, 100 mM sodium chloride solution and 0.05% Brij-35 solution), MOCAc-Pro-Leu-Gly-Leu-A2pr(DNP)-Ala-Arg-NH2 in 0.1% DMSO solution (100 μM, 10 μl) and a test compound in DMSO solution was incubated for 1.5 hours at 37° C. The mixture was put on a 96 well-plate (100 μl/well) and the plate was cultured at 37° C. The enzyme activity in the presence of the compound was measured based on fluorescence intensity (λex 320 nm, λem 405 nm), and IC50 was calculated.

MMP-14 (MT1-MMP) = target: T2, MMP-14 (MT1-MMP) (Homo sapiens, UniProt P50281); test: Test 5 MMP-14 (MT1-MMP) inhibiting activity test; conditions: human recombinant MT1-MMP, 37° C.; read-out: MMP-14 inhibition activity value
T2 construct: purchased Biogenesis, supplied by Cosmobio (Nakarai Tesku)
Method: Test 5 MMP-14 (MTI-MMP) Inhibiting Activity Test
Human recombinant MTI-MMP used the product prepared by Biogenesis and supplied by Cosmobio (Nakarai Tesku).
An assay buffer solution (70 μl, pH 7.5 solution containing 0.1M Tris-HCl solution, 0.1M calcium chloride solution, 10 mM sodium chloride solution and 0.05% Brij-35 solution), 0.1 w/w % a compound in DMSO (10 μl), MMP substrate solution (MOCAc-Pro-Leu-Gly-Leu-A2pr(DNP)-Ala-Arg-NH2 (Peptide Lab.) diluted with the assay buffer solution (50 μM, 10 μl)) and human recombinant MT1-MMP (0.4 pg/10 μl/well) were well agitated under stirring. The enzyme activity of the mixture was measured based on fluorescence intensity (λex 320 nm/λem 405 nm) by a fluorescence reader. After the mixture was incubated at 37° C. for 0.5 hour, the fluorescence intensity (λex 320 nm/λem 405 nm) was measured every hour, and IC50 was calculated.
The inhibition value was calculated by withdrawing average value of blank well from fluorescence mean value of well in which MT1-MMP was added. As the blank was used the mixed solution prepared by adding assay buffer (10 μl) instead of MT1-MMP solution.

MMP-9 = MMP-9 (Homo sapiens, UniProt P14780); test: Test 4 MMP-9 inhibiting activity test (biotin labeled gelatin); conditions: activated human MMP-9, biotin labeled gelatin; read-out: MMP-9 inhibition activity value
Method: Test 4 MMP-9 Inhibiting Activity Test
A mixture of buffer solution (190 μl; pH 7.5 solution containing 50 mM Tris-HCl solution, 0.5 m sodium chloride solution and 5 mM calcium chloride solution), human MMP-9 (10 μl) and trypsin solution (20 μl; trypsin 3 mg in activated buffer (5 ml)) was incubated at 37° C. for 10 minutes. Thereto was added aprotinine solution (20 μl; aprotinine (3 mg) in buffer (5 ml)) and the mixture was incubated at 37° C. for 10 minutes, followed by addition of buffer (2 ml). The mixture was preserved under cooling with ice until use.
A mixture of DMSO solution (2 μl) containing definite concentration of the compound, biotin labeled gelatin (188 μl) and activated MMP-9 solution (10 μl) was put on a 96 well-assay plate (protein nonabsorbance type), well agitated, and incubated at 37° C. for 1 hour. This solution was transferred to Streptavidin-coating plate, and agitated at 15° C. to 30° C. for 30 minutes. And then the solution was washed with TTC buffer solution (200 μl) three times. Thereto was added Streptavidin-POD (200 μl) and the mixture was agitated at 15° C. to 25° C. for 60 minutes, followed by washing with TTC buffer (200 μl) three times. Then, ABTS solution (200 μl) was added thereto and after standing at room temperature for 40 minutes, furuorescence intensity was measured at 405 nm and IC50 was calculated.
In case of the above test, DMSO (2 μl) was used as a control instead of a sample solution. In the case of a blank, DMSO (2 μl) instead of the sample solution and the solution (10 μl) prepared in the same manner as preparation of […] but without adding 1.2 Uhuman MMP-9, instead of activated MMP-9 solution (10 μl), were used.

T1 sequence (P08254 100-272 limits assumed): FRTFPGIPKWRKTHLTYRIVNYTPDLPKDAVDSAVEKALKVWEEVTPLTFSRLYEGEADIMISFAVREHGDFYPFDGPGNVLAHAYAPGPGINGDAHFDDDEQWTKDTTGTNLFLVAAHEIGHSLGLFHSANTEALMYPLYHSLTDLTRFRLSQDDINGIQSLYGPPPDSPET
MMP-9, sequence (P14780 107-707 limits assumed): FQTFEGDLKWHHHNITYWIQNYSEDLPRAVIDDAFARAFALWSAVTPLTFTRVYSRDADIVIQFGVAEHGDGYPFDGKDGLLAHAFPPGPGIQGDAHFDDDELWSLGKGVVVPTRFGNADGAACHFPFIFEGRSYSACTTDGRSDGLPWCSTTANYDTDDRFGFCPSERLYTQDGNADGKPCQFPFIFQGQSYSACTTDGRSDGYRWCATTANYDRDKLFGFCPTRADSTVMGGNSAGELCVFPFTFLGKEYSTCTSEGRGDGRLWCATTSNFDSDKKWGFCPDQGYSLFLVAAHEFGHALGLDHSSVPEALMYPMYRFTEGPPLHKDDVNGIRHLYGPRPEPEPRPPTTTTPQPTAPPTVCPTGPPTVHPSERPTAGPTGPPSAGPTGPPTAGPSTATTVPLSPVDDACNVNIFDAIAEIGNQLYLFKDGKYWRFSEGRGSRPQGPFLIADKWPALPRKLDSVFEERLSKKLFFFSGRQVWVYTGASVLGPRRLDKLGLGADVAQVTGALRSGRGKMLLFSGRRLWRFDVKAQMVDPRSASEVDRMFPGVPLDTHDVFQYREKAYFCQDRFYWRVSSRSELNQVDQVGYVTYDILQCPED

Compound | IC50 (MMP-3) | IC50 (MMP-14 (MT1-MMP)) | IC50 (MMP-9)
CC(C)CN(C1(C(=O)NO)CCCC1)S(=O)(=O)c1ccc(Oc2ccc(S(C)(=O)=O)cc2)cc1 [Example 2, N-hydroxy 1-[isobutyl({4-[4-(methylsulfonyl)phenoxy]phenyl}sulfonyl)amino]cyclopentanecarboxamide] | 21.2 nM | 3800 nM | 300 nM
CC(C)OCCN(CC(=O)NO)S(=O)(=O)c1ccc(Oc2ccc(S(C)(=O)=O)cc2)cc1 [Example 3, N^1-hydroxy-N^2-(2-isopropoxyethyl)-N^2-({4-[4-(methylsulfonyl)phenoxy]phenyl}sulfonyl)glycinamide] | 4.8 nM | 172 nM | 1000 nM
CC(C)(C(=O)NO)N(Cc1ccccc1)S(=O)(=O)c1ccc(Oc2ccc(S(C)(=O)=O)cc2)cc1 [Example 10, N′^2′-Benzyl-N′^1′-hydroxy-2-methyl-N′^2′-({4-[4-(methylsulfonyl)phenoxy]phenyl}sulfonyl)alaninamide] | 85.8 nM | > 5000 nM | 6800 nM
CS(=O)(=O)c1ccc(Oc2ccc(S(=O)(=O)N(Cc3ccccc3)C3(C(=O)NO)CCOCC3)cc2)cc1 [Example 12, 4-[Benzyl({4-[4-(methylsulfonyl)phenoxy]phenyl}sulfonyl)amino]-N-hydroxytetrahydoro-2H-pyrane-4-carboxamide] | 16 nM | 893 nM | < 100 nM
CS(=O)(=O)c1ccc(Oc2ccc(S(=O)(=O)NCC(=O)NO)cc2)cc1 [Example 13, N′^1′-Hydroxy-N′^2′-({4-[4-(methylsulfonyl)phenoxy]phenyl}sulfonyl)glycinamide] | 13.5 nM | > 5000 nM | 4700 nM
CC(C)CN(C1(C(=O)NO)CCOCC1)S(=O)(=O)c1ccc(Oc2ccc(S(C)(=O)=O)cc2)cc1 [Example 15, N-Hydroxy-4-[isobutyl({4-[4-(methylsulfonyl)phenoxy]phenyl}sulfonyl)amino]tetrahydro-2H-pyrane-4-carboxamide] | 5.2 nM | > 5000 nM | 700 nM
CC(C)CN(C1(C(=O)NO)CCC1)S(=O)(=O)c1ccc(Oc2ccc(S(C)(=O)=O)cc2)cc1 [Example 18, N-Hydroxy-1-[isobutyl({4-[4-(methylsulfonyl)phenoxy]phenyl}sulfonyl)amino]cyclobutanecarboxamide] | 29.9 nM | 799 nM | 500 nM
CCOC(=O)CN(CC(=O)NO)S(=O)(=O)c1ccc(Oc2ccc(S(C)(=O)=O)cc2)cc1 [Example 22, Ethyl N-{[(hydroxyamino)carbonyl]methyl}-N-({4-[4-(methylsulfonyl)phenoxy]phenyl}sulfonyl)-glycinate] | 26.6 nM | 668 nM | 1400 nM
CCOC(=O)CN(C1(C(=O)NO)CCCC1)S(=O)(=O)c1ccc(Oc2ccc(S(C)(=O)=O)cc2)cc1 [Example 23, Ethyl N-{1-[(hydroxyamino)carbonyl]cyclopentyl}-N-({4-[4-(methylsulfonyl)phenoxy]phenyl}sulfonyl)glycinate] | 21.6 nM | > 5000 nM | 2300 nM
CS(=O)(=O)c1ccc(Oc2ccc(S(=O)(=O)N(CC(=O)O)CC(=O)NO)cc2)cc1 [Example 24, N-{[(Hydroxyamino)carbonyl]methyl}-N-({4-[4-(methylsulfonyl)phenoxy]phenyl}sulfonyl)-glycine] | 128 nM | > 5000 nM | > 10000 nM
CCOC(=O)CCN(C1(C(=O)NO)CCCC1)S(=O)(=O)c1ccc(Oc2ccc(S(C)(=O)=O)cc2)cc1 [Example 26, Ethyl N-{1-[(hydroxyamino)carbonyl]cyclopentyl}-N-({4-[4-(methylsulfonyl)phenoxy]phenyl}sulfonyl)-β-alaninate] | 14.3 nM | 395 nM | > 100 nM
CS(=O)(=O)c1ccc(Oc2ccc(S(=O)(=O)N(CCC(=O)O)C3(C(=O)NO)CCCC3)cc2)cc1 [Example 27, N-{1-[(Hydroxyamino)carbonyl]cyclopentyl}-N-({4-[4-(methylsulfonyl)phenoxy]phenyl}sulfonyl)-β-alanine] | 89.4 nM | > 5000 nM | > 10000 nM
CCOC(=O)CCN(C1(C(=O)NO)CCOCC1)S(=O)(=O)c1ccc(Oc2ccc(S(C)(=O)=O)cc2)cc1 [Example 31, Ethyl N-{4-[(hydroxyamino)carbonyl]tetrahydro-2H-pyran-4-yl}-N-({4-[4-(methylsulfonyl)phenoxy]phenyl}sulfonyl)-β-alaninate] | 59 nM | > 5000 nM | 4900 nM
CS(=O)(=O)c1ccc(Oc2ccc(S(=O)(=O)N(CCC(=O)O)CC(=O)NO)cc2)cc1 [Example 36, N-[2-(Hydroxyamino)-2-oxoethyl]-N-({4-[4-(methylsulfonyl)phenoxy]phenyl}sulfonyl)-β-alanine] | 37.1 nM | 938 nM | > 100 nM
CS(=O)(=O)c1ccc(Oc2ccc(S(=O)(=O)N(CC(=O)NO)Cc3ccncc3)cc2)cc1 [Example 42, N′^1′-Hydroxy-N′^2′-({4-[4-(methylsulfonyl)phenoxy]phenyl}sulfonyl)-N′^2′-(4-pyridinylmethyl)glycinamide] | 67.5 nM | > 5000 nM | 4300 nM
COCCCN(CC(=O)NO)S(=O)(=O)c1ccc(Oc2ccc(S(C)(=O)=O)cc2)cc1 [Example 43, N^1-Hydroxy-N^2-(3-methoxypropyl)-N^2-({4-[4-(methylsulfonyl)phenoxy]phenyl}sulfonyl)glycinamide] | 8.5 nM | 82 nM | 600 nM
COCCN(CC(=O)NO)S(=O)(=O)c1ccc(Oc2ccc(S(C)(=O)=O)cc2)cc1 [Example 44, N^1-Hydroxy-N^2-(2-methoxyethyl)-N^2-({4-[4-(methylsulfonyl)phenoxy]phenyl}sulfonyl)glycinamide] | 2.7 nM | 343 nM | > 10000 nM
CCOCCN(C1(C(=O)NO)CCCC1)S(=O)(=O)c1ccc(Oc2ccc(S(C)(=O)=O)cc2)cc1 [Example 45, 1-[(2-Ethoxyethyl)({4-[4-(methylsulfonyl)phenoxy]phenyl}sulfonyl)amino]-N-hydroxycyclopentanecarboxamide] | 1.5 nM | > 1500 nM | > 100 nM
CCOC(=O)CN(C1(C(=O)NO)CCC1)S(=O)(=O)c1ccc(Oc2ccc(S(C)(=O)=O)cc2)cc1 [Example 46, Ethyl N-{1-[(hydroxyamino)carbonyl]cyclobutyl}-N-({4-[4-(methylsulfonyl)phenoxy]phenyl}sulfonyl)glycinate] | 11.6 nM | > 1500 nM | > 100 nM
CS(=O)(=O)c1ccc(Oc2ccc(S(=O)(=O)NC3(C(=O)NO)CCC3)cc2)cc1 [Example 48, N-Hydroxy-1-[({4-[4-(methylsulfonyl)phenoxy]phenyl}sulfonyl)amino]cyclobutanecarboxamide] | 35.9 nM | > 1500 nM | > 100 nM

— patent publication US7504537B2, “Hydroxamic acid derivative and MMP inhibitor containing the same as active ingredient” (Dainippon Sumitomo Pharma Co., Ltd., priority 2001, dated 2009)
